From the supplement of paper PMC11208160

Test: recombinant barcode read abundance after kanamycin selection (control-corrected) (log10(CPM+1)); higher = more efficient recombination; sequences stand for … in AGTGCAGAGAAAATCGGCCAGTTTTCTCTGCCTGCAGTCCGCATGCCGT…AGATTTATGCAGCGGACTGCCTTTCTCCCAAAGTGATAAACCGGACAGTATCATGGACCGGTTTTCCCGGTAATCCGTATTTGCAAGGTTGGTTTCACT; site = the 11-nt target
Procedure, shortened: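 Duplicate cultures were plated either on chloramphenicol/ampicillin LB agar, serving as control, or on chloramphenicol/ampicillin/kanamycin with 0.1 mM IPTG. These came from a pooled E. coli library co-electroporated with a donor plasmid, each member pairing a target with an IS621 bridge RNA target-binding loop. Recombination efficiency equals averaged, control-corrected counts per million of recombinant-junction barcodes. It is listed as log10(CPM+1).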
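Note: IS621 recombinase and bridge RNA in Escherichia coli cells.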

Sequence | recombinant barcode read abundance (log10)
AGTCACACTTGGGTTCTAACCTGTTGCTG (site AGTCACACTTA) | 0
AGTCCACCTTGGGTTCTAACCTGTTGCCT (site AGTCCACCTAG) | 1.53
AGTCCACCTTGGGTTCTAACCTGTTGCCT (site CGTCCACCTAG) | 0.166
AGTCCACCTTGGGTTCTAACCTGTTGCCT (site GGTCCACCTAG) | 0.132
AGTCCACCTTGGGTTCTAACCTGTTGCCT (site TGTCCACCTAG) | 0.49
AGTCCGTCTTGGGTTCTAACCTGTTGCAT (site AGTCCGTCTAT) | 1.29
AGTCCGTCTTGGGTTCTAACCTGTTGCAT (site CTAATAGCTTG) | 0.0391
AGTCGGACTTGGGTTCTAACCTGTTGCTT (site AGTCATACTAA) | 0.446
AGTCGGACTTGGGTTCTAACCTGTTGCTT (site AGTCGGACTAA) | 0.517
AGTCGTACTTGGGTTCTAACCTGTTGCCT (site AGACGTACTAG) | 0.166
AGTCGTACTTGGGTTCTAACCTGTTGCCT (site AGCCGTACTAG) | 0.213
AGTCGTACTTGGGTTCTAACCTGTTGCCT (site AGGCGTACTAG) | 0.0589
AGTCGTACTTGGGTTCTAACCTGTTGCCT (site AGTCGTACTAG) | 0.536
AGTCTAGCTTGGGTTCTAACCTGTTGCCA (site AGTCTAGCTAG) | 0.176
AGTCTAGCTTGGGTTCTAACCTGTTGCCA (site AGTCTAGCTCG) | 0.217
AGTCTAGCTTGGGTTCTAACCTGTTGCCA (site AGTCTAGCTGG) | 0.548
AGTCTAGCTTGGGTTCTAACCTGTTGCCA (site AGTCTAGCTTG) | 0.493
AGTCTAGCTTGGGTTCTAACCTGTTGCGG (site AGGATAGCTCC) | 0.479

Sequence | recombinant barcode read abundance (log10)
AGTCTAGCTTGGGTTCTAACCTGTTGCGG (site AGTCTAGCTCC) | 1.33
AGTCTGCCTTGGGTTCTAACCTGTTGCCT (site AGTCTGCCTAG) | 0.427
AGTCTGCCTTGGGTTCTAACCTGTTGCCT (site CGTCTGCCTAG) | 0.0547
AGTCTGCCTTGGGTTCTAACCTGTTGCCT (site GGTCTGCCTAG) | 0.0978
AGTCTGCCTTGGGTTCTAACCTGTTGCCT (site TGTCTGCCTAG) | 0.0318
AGTGAACCTTGGGTTCTAACCTGTTGCCT (site AGCTAACCTAG) | 0.013
AGTGAACCTTGGGTTCTAACCTGTTGCCT (site AGTGAACCTAG) | 1.84
AGTGAATCTTGGGTTCTAACCTGTTGCCT (site AGAGAATCTAG) | 0.13
AGTGAATCTTGGGTTCTAACCTGTTGCCT (site AGCGAATCTAG) | 0.249
AGTGAATCTTGGGTTCTAACCTGTTGCCT (site AGGGAATCTAG) | 0.286
AGTGAATCTTGGGTTCTAACCTGTTGCCT (site AGTGAATCTAG) | 0.541
AGTGCGTCTTGGGTTCTAACCTGTTGCCT (site AGTGCGTCTAG) | 1.52
AGTGCGTCTTGGGTTCTAACCTGTTGCCT (site CGTGCGTCTAG) | 0.043
AGTGCGTCTTGGGTTCTAACCTGTTGCCT (site GGTGCGTCTAG) | 0.241
AGTGCGTCTTGGGTTCTAACCTGTTGCCT (site TGTGCGTCTAG) | 0.0164
AGTGCTCCTTGGGTTCTAACCTGTTGCGG (site AGAGCTCCTCC) | 0.196
AGTGCTCCTTGGGTTCTAACCTGTTGCGG (site AGTGCTCCTCC) | 0.18
AGTGTCACTTGGGTTCTAACCTGTTGCGG (site AGTGTCACTCC) | 2.77
